Measurements: patent US9328369B2, “Process for production of useful substance, and surfactant for use in the process” (priority 2009, dated 2016)

Test system: Escherichia coli (α)
Test: Screening of secretion efficiency, alkaline phosphatase expressing strain
Assay type: cell-based
Settings: surfactant 1 wt %; 37° C., 1 hour; ELISA, anti-His-tag antibody
From the text: An alkaline phosphatase (phoA) gene of an Escherichia coli strain W3110 was amplified by the PCR method using primers 1 and 2 (Table 4). After being treated with restriction enzymes NdeI and BamHI, a PCR fragment was bound with an NdeI restriction enzyme site and with a BamHI restriction enzyme site of a pET-22b plasmid (product of Novagen). Then, the plasmid was transformed into an AG1 (DE3) Escherichia coli strain formed by transforming an Escherichia coli strain AG1 (product of TOYOBO Co., LTD.) with use of a λDE3 Lysogenization Kit (product of Novagen). In this manner, an alkaline phosphatase expressing strain (a) was formed.
A pdxA gene of an Escherichia coli strain W3110 was amplified by the PCR method using primers 5 and 6 (Table 4). After being treated with restriction enzymes NdeI and BamHI, a PCR fragment was bound to an NdeI restriction enzyme site and a BamHI restriction enzyme site of a pET-22b plasmid (product of Novagen). Then, the plasmid was transformed into an AG1 (DE3) Escherichia coli strain to form a PdxA expressing strain (γ).
In this manner, culture solutions were prepared.
(2) The strains were collected using a centrifuge (4,000 G, 4° C., 15 minutes). Each of the collected Escherichia coli strains was resuspended in 1 mL of a TB culture solution (product of Difco) and chloramphenicol (30 mg/L) and IPTG (100 μM) were added thereto. Shake culture at 37° C. for 3 hours induced expression of phoA, torA, and pdxA.
(3) Subsequently, harvesting using a centrifuge was carried out again (4,000 G, 4° C., 15 minutes). Each of the collected Escherichia coli strains was resuspended in 2.5 mL of a Tris-NaCl buffer solution (50 mM Tris (pH 7.5), 100 mM NaCl). The resulting solution was divided into 25-μL portions at a time to be mixed with 25 μL of a Tris-NaCl buffer solution.
(4) Then, the solution was allowed to stand at 37° C. for 1 hour. The supernatant solution was collected and diluted in a Tris-NaCl buffer solution to a proper concentration. Here, the quantification of the recombinant protein in the resulting solution was carried out by ELISA assay with use of an anti-His-tag antibody. The sample prior to the centrifugation in the process (3) was treated with ultrasonic waves (200 W, 10 minutes) and the quantification of the recombinant protein therein was similarly carried out by ELISA assay with use of an anti-His-tag antibody. The ratio of lysed bacteria was obtained with use of Escherichia coli (γ), and the secretion efficiencies of the recombinant proteins of Escherichia coli (α) and (β) were calculated by using the following formula. […] Secretion efficiency (%)=100×{(X/Y)−Z}.
In the formula, “X” represents the amount of the recombinant protein in the culture solution after removal of bacterial cells by centrifugation in the case of using Escherichia coli (α) or (β).
“Y” represents the amount of the whole recombinant protein in the culture solution in the case of using Escherichia coli (α) or (β).
“Z” represents the ratio of lysed bacteria obtained with use of Escherichia coli (γ), which is determined by the following formula: Z=Z1/Z2.
In the formula, “Z1” represents the amount of the recombinant protein in the culture solution which remains after removal of bacterial cells by centrifugation in the case of using Escherichia coli (γ).
“Z2” represents the amount of the whole recombinant protein in the culture solution in the case of using Escherichia coli (γ).
Escherichia coli (α) and (β) were each cultured in the same manner as in the above case except that polyoxyethylene (3 mol) tridecyl ether sodium acetate as the surfactant (A) was added right after the resuspension of the Escherichia coli in the buffer solution in the process (3) of A-0, in an amount of 1% by weight on the basis of the weight of the suspension of the bacterium. The secretion efficiency was calculated according to the above-mentioned definition.

Row | Molecule | Secretion efficiency (%) Escherichia coli (α) [%]
1 | CCCCCCCCCCCCCCCC[N+](C)(C)C.[Cl-] [A-14, Cetyl trimethyl ammonium chloride] | 37.8
2 | Cured palm oil fatty acid amidopropyl dimethyl aminoacetate betaine [A-6] | 87.6
3 | Polyoxyethylene(3 mol)tridecyl ether sodium acetate [A-1] | 100.0
4 | Sodium cocaminopropionate [A-7] | 85.0
